Nine compounds from PubChem BioAssay (NCI) can be followed below.

Common to all, as to experiment: NCI tumour cell line growth inhibition, 48 h
The subject of assay [1] is 786-0 renal.
In assay [2] the test system is A549 NSCLC.
Assay [3] has as its system CAKI-1 renal.
Assay [4] deals with IGROV1 ovarian.
Assay [5] has as its system K-562 leukemia.
Assay [6] relates to LOX IMVI melanoma.
The subject of assay [7] is MDA-MB-435.
Assay [8] has as its system MDA-N.
Assay [9] concerns NCI-H460 lung.
Assay [10] concerns OVCAR-4 ovarian.
The subject of assay [11] is OVCAR-8 ovarian.
Assay [12] deals with SF-539 CNS.
In assay [13] the test system is SK-MEL-2 melanoma.
Assay [14] has as its system SNB-75 CNS.
The subject of assay [15] is SW-620 colon.
Assay [16] deals with UACC-257 melanoma.
Assay [17] relates to UACC-62 melanoma.

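Dose response: 5 concentrations. Exposure: 48 h. Format: 96-well plates. Endpoint: linear interpolation; highest concentration if not reached. At the GI50, growth is halved. The concentration for full growth arrest is given as TGI.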

In the case of `O=C(C(=O)N1CCc2ccccc21)c1c[nH]c2ccccc12`, the TGI in assay [1], in [2], in assay [3], in [4], in assay [5] and in assay [6] was greater than 10 µM each time. Moreover, the TGI in assay [7], in [8], in assay [9], in [10], in assay [11] and in assay [12] was greater than 10 µM each time. Besides, the TGI in assay [13], in assay [14], in assay [15], in assay [16] and in assay [17] was greater than 10 µM in each case.

For `CCC1OC2C(CC=C(C)C)=C3OC(C)(O)C(C)(CC)C(OC(=O)c4ccccc4)C3=C3OC(=O)C=C1C32` (stereo not given), the TGI in [1] was greater than 100 µM; in assay [2], greater than 100 µM; in [3] it was greater than 100 µM; in [4] it was greater than 100 µM; in assay [5], greater than 100 µM; in assay [6], 46.2 µM. The TGI in assay [7] is greater than 100 µM; in assay [8], 44.4 µM; in assay [9], greater than 100 µM; in assay [11] it was greater than 100 µM; in assay [12], 54.1 µM; in [13], 55.2 µM. The TGI in assay [14], in [15], in [16] and in [17] was greater than 100 µM throughout.

For `COc1ccc2c(c1C)C(=O)C(O)(CC=C(C)C)O2` (stereo not given), the TGI in [1], in assay [2], in assay [3], in assay [4], in assay [5] and in assay [6] was greater than 100 µM throughout. Besides, the TGI in [7], in assay [8], in [9], in assay [11], in assay [12] and in assay [13] was greater than 100 µM in each case. Also, the TGI in [14], in assay [15], in assay [16] and in [17] was greater than 100 µM each time.

Regarding `CC1=NC(=Cc2ccc(O)cc2)C(=O)N1n1c(-c2ccccc2)nc2ccccc2c1=O`, the TGI in [1], in [2], in assay [3], in [4], in assay [5] and in [6] was greater than 100 µM in each case. The TGI in assay [7], in [8], in assay [9], in assay [11], in assay [12] and in assay [14] was greater than 100 µM throughout. In addition, the TGI in assay [15], in assay [16] and in [17] was greater than 100 µM throughout.

In the case of `c1cc(-c2ncc(-c3ccc4c(c3)CCCO4)o2)ccn1`, the TGI was greater than 100 µM in [1]; greater than 100 µM in assay [2]; greater than 100 µM in assay [3]; greater than 100 µM in assay [4]; 7.05 µM in [5]; 31 µM in assay [6]. Besides, the TGI in assay [7] was 15.3 µM; in [8], 23.1 µM; in assay [10], greater than 100 µM; in assay [11] it was 94.9 µM; in [12], 45.2 µM; in [13], 37.6 µM. Further, the TGI in assay [14] came out at 53.5 µM; in [16] it was 43.5 µM; in assay [17], 66.3 µM.

Consider `O=C(NCCCNC(=O)c1ccc2c(O)c(O)ccc2c1)c1ccc2c(O)c(O)ccc2c1`, for which the TGI in assay [1] was 57.9 µM; in assay [2], greater than 100 µM; in assay [3], greater than 100 µM; in assay [4], 40.8 µM; in assay [5] it was greater than 78.7 µM; in [6] it was greater than 100 µM. Also, the TGI is 36.1 µM in assay [7]; 41.4 µM in assay [8]; greater than 100 µM in assay [10]; 99.1 µM in assay [11]; greater than 100 µM in [12]; greater than 81.6 µM in [13]. Besides, the TGI in assay [14] is 42.5 µM; in assay [15], greater than 62.2 µM; in [16] it was 53 µM; in [17] it was greater than 90 µM.

On to `COc1ccc2c(c1)CCc1c-2[nH]c2ccc(OC)cc12`, for which the TGI in assay [1], in [2], in assay [3], in [4], in [5] and in [6] was greater than 100 µM in each case. Besides, the TGI in assay [7], in [8], in assay [9], in assay [10], in assay [11] and in assay [13] was greater than 100 µM throughout. In addition, the TGI in assay [14], in assay [15], in [16] and in assay [17] was greater than 100 µM in each case.

For the compound `O=C1c2cc3c(cc2CC12Cc1cc4c(cc1C2=O)CCC4)CCCC3` (stereo not given), the TGI in assay [1], in [2], in assay [3], in assay [4], in assay [5] and in assay [6] was greater than 100 µM in each case. Besides, the TGI in assay [7], in [8], in assay [9], in assay [10], in assay [11] and in assay [12] was greater than 100 µM in each case. In addition, the TGI in [13], in [14], in assay [15] and in [16] was greater than 100 µM in each case.

Regarding `NS(=O)(=O)c1ccc(-n2c(-c3cccs3)nc3ccc(I)cc3c2=O)cc1`, the TGI in assay [1] is 77.8 µM; in assay [2], 41.5 µM; in [3], 36.6 µM; in assay [4] it was 56 µM; in [5] it was greater than 100 µM; in assay [6], 37 µM. Moreover, the TGI was 42.4 µM in assay [7]; greater than 100 µM in assay [8]; 83 µM in [9]; 86.3 µM in assay [10]; greater than 100 µM in assay [11]; 47.6 µM in [13]. Also, the TGI is 87.4 µM in [14], greater than 100 µM in assay [15], 19.3 µM in assay [16] and 46.2 µM in [17]. Moreover, the results for the GI50 in assay [5] and in [13] were 37.2 µM and 21.8 µM, respectively.
